Assay [1] concerns the target full-length PI3Kα (full-length p110α/p85α) (Homo sapiens (Human), UniProt P42336). The assay can be described thus: PI3KA_FL fluorescence polarization kinase assay (Ki). Conditions: 41 μM ATP. The assay is classed as biochemical. The source says: Enzyme Production for Biochemical Assays: 1) PI3Kα Complex (Full Length p110α and p85α)(“PI3KA_FL”)
Genes encoding for full length p110α and p85α subunits of PI3Kα complex were subcloned from existing constructs into pFASTBAC Dual vector (Life Technologies, Carlsbad, Calif.) using standard cloning procedures. Gene encoding p110α subunit was subcloned into polyhedrine promoter while gene encoding p85α subunit was subcloned into p10 promoter. Additionally, sequence encoding for histidine tag and Tobacco Etch Virus (“TEV”) cleavage site preceded p110α ORF (Open Reading Frame). Recombinant baculovirus was generated using Bac-to-Bac protocol (Life Technologies, Carlsbad, Calif.) and large scale expression was conducted in Sf21 (Life Technologies, Carlsbad, Calif.) cells at a multiplicity of infection (“MOI”)=1 for 72 hours. Cells were lyzed in 50 mM Tris pH 8.0, 250 mM NaCl, 5% glycerol, 0.25 mM TCEP, and 20 mM imidazole. The PI3Kα complex was purified from clarified supernatant using Immobilized Metalo Affinity Chromatography (“IMAC”). The protein was eluted from the column using 50 mM Tris pH 8.0, 200 mM NaCl, 5% glycerol, 0.25 mM TCEP, and 200 mM imidazole, and further desalted into 50 mM Tris pH 8.0, 20 mM NaCl, and 0.25 mM TCEP prior to loading on MonoQ sepharose (GE Healthcare, Piscataway, N.J.). PI3Kα complex was eluted from MonoQ sepharose over 20 column volumes using 0-30% gradient of buffer B (50 mM Tris pH 8.0, 1 M NaCl, and 0.25 mM TCEP). The peak fractions were pulled together and loaded on Superdex 200 26/60 SEC column equilibrated in 50 mM Tris pH 8.0, 200 mM NaCl, and 0.5 mM TCEP. […] Purity and integrity of the complex was confirmed using LCMS, analytical SEC and SDS-PAGE (sodium dodecyl sulfate polyacrylamide gel electrophoresis) analysis.
The biochemical assays of kinase activity of full-length PI3Kα (full-length p110α/p85a) or truncated PI3Kα (p110α/iSH2 p85a) were conducted using a fluorescence polarization format similar to the procedure of Yuan J., et al., (2011) “PF-04691502, a Potent and Selective Oral Inhibitor of PI3K and mTOR Kinases with Antitumor Activity”, Mol Cancer Ther. 10, 2189-2199. The enzymatic reactions were conducted in 50 μL volumes in 96-well plates. The reactions contained human recombinant PI3Kα (2 nM full-length p110α/p85α or 0.5 nM p110α/iSH2 p85) and 30 μM phosphatidylinositol 4,5-bisphosphate (“PIP2”) (Cayman Chemical Company, Ann Arbor, Mich.) and were sonicated for 1 minute prior to adding PI3Kα enzyme (PI3KA_Act or PI3KA_FL), DMSO or test compound (12-point 3-fold serial dilution, 3 μM top dose, 2° A) DMSO final concentration), 5 mM MgCl2, 50 mM HEPES pH 7.4, 150 mM NaCl, 1 mM DTT ((2S,3S)-1,4-bis(sulfanyl)butane-2,3-diol), and 0.05% 3-[(3-cholamidopropyl)dimethylammonio]-1-propanesulfonate (“CHAPS”). […] The reactions were incubated for 30 min at room temperature, stopped with EDTA pH 8 (10 mM final concentration). In a detection plate, 15 μL of detector/probe mixture, containing 480 nM GST-Grp1 PH domain protein (University of Dundee, Dundee, UK) and 12 nM carboxytetramethylrhodamine (“TAMRA”)-tagged fluorescent phosphatidylinositol (3,4,5)-triphosphate (“PIP3”) (Echelon Biosciences, Inc., Salt Lake City, Utah) in assay buffer, was mixed with 15 μL of kinase reaction mixture. The plate was shaken for 30 minutes and fluorescence polarization values were measured on an LJL Analyst HT plate reader (Molecular Devices, Sunnyvale, Calif.). […] The inhibition constants (Ki) were calculated by fitting fluorescence polarization values, corresponding to initial reaction rates, to the Morrison equation (Morrison, J. F. (1969) Kinetics of the reversible inhibition of enzyme catalysed reactions by tight-binding inhibitors. Biochim. Biophys. Acta 185, 269-286) for tight-binding competitive inhibitors using non-linear regression method (GraphPad Prism, GraphPad Software, San Diego, Calif.).

Assay [2] addresses truncated PI3Kα (p110α/iSH2 p85α) (Homo sapiens (Human), UniProt P42336). The assay can be described thus: PI3KA_Act fluorescence polarization kinase assay (Ki). The assay is classed as biochemical. As to conditions: 1 mM ATP. In a few lines: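 Ki values result from fitting fluorescence polarization signals to the Morrison equation for tight-binding competitive inhibitors. The detector was GST-Grp1 PH domain with TAMRA-PIP3, read after a 30 min room-temperature reaction of 0.5 nM truncated PI3Kα and 30 μM PIP2 at pH 7.4 in HEPES/NaCl/MgCl2/DTT/CHAPS buffer. Compounds were tested as 12-point 3-fold dilutions from 3 μM.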

Where a name gives a salt, the structure may show the parent alone.

Experimental findings from patent US9260439B2, “Dihydropyrrolopyrimidine derivatives” (PFIZER INC., priority 2014, dated 2016) are described below.

Chain of full-length PI3Kα (full-length p110α/p85α) (P42336 whole entry): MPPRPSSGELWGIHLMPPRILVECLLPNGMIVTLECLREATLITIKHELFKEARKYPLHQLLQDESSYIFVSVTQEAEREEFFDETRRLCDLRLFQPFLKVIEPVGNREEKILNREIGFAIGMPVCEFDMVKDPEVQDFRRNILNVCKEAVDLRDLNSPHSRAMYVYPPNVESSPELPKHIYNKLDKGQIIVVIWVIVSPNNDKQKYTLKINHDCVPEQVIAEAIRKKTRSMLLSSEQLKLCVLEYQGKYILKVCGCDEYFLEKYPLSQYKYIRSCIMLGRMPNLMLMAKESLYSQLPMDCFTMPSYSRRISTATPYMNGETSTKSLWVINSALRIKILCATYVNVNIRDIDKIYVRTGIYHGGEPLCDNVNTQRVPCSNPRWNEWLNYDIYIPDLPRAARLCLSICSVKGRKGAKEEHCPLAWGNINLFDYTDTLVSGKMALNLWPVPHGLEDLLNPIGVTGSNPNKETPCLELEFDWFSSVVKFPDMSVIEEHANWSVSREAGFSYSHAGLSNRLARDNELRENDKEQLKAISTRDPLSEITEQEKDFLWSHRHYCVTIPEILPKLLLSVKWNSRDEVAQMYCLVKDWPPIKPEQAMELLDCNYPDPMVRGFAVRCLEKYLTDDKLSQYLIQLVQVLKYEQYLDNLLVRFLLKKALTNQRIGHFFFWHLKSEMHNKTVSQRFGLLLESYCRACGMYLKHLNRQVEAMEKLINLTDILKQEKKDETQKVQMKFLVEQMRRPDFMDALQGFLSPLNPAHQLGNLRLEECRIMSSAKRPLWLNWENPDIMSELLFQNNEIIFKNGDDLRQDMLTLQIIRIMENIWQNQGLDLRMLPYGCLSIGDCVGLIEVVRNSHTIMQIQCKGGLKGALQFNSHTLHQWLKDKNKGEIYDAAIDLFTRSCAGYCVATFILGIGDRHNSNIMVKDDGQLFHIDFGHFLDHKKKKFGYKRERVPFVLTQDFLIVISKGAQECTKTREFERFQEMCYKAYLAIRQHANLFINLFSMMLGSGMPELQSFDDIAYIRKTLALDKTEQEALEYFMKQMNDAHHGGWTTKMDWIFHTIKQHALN
Chain of full-length PI3Kα (full-length p110α/p85α) (P27986 whole entry partner): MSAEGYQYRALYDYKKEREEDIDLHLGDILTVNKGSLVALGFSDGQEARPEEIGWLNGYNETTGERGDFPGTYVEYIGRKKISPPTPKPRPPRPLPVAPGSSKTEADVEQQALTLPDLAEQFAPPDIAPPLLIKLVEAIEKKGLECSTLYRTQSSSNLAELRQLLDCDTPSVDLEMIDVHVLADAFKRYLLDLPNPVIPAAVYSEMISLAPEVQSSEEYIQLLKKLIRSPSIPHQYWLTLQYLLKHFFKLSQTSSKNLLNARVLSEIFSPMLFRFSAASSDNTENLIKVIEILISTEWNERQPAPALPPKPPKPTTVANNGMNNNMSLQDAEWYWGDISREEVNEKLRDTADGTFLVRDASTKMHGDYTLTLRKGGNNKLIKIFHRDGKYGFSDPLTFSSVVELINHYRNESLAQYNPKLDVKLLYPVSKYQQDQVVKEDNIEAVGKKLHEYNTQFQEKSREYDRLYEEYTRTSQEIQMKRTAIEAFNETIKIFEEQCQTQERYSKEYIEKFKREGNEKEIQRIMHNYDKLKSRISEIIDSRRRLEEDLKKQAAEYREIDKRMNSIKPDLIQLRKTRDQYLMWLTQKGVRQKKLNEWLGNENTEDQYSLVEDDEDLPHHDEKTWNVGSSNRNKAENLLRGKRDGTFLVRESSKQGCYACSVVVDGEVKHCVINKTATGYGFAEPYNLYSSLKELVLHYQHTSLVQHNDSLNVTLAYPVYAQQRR
Chain of truncated PI3Kα (p110α/iSH2 p85α) (P42336 whole entry, the tested form may be a part): as the sequence (P42336 whole entry) above

Consider `Nc1ncc(-c2nc(N3CCOCC3)nc3c2CCN3C2CCC(F)(F)C2)cn1` (racemic) [Example 19], for which the “PI3KA_FL Ki” value in assay [1] amounted to 0.528 nM.

As to `Nc1ncc(-c2nc(N3CCOCC3)nc3c2CCN3C2CCCOC2)cn1` (racemic) [Example 37], the “PI3KA_FL Ki” value in assay [1] was 7.189 nM. Regarding `CC(=O)N1CCCC(N2CCc3c(-c4cnc(N)nc4)nc(N4CCOCC4)nc32)C1` (racemic) [Example 51], the “PI3KA_FL Ki” value in assay [1] is 18.619 nM.

Turning to `CC(=O)N1C[C@@H](F)[C@H](N2CCc3c(-c4cnc(N)nc4)nc(N4CCOCC4)nc32)C1` (single isomer, unassigned) [Example 66], the “PI3KA_FL Ki” value in assay [1] turned out to be 0.926 nM. Turning to `CC(=O)N1C[C@H](F)[C@@H](N2CCc3c(-c4cnc(N)nc4)nc(N4CCOCC4)nc32)C1` (single isomer, unassigned) [Example 67], in assay [1], the “PI3KA_FL Ki” value was 1.899 nM.

`CC(=O)N1C[C@@H](N2CCc3c(-c4cnc(N)nc4)nc(N4CCOCC4)nc32)[C@@H](F)C1` (single isomer, unassigned) [Example 75]: the “PI3KA_FL Ki” value in assay [1] came to 1.106 nM. With `C[C@H]1COCCN1c1nc(-c2cnc(N)nc2)c2c(n1)N([C@@H]1CCC(F)(F)C1)CC2` (single isomer, unassigned) [Example 88], the “PI3KA_FL Ki” value in assay [1] stood at 0.674 nM.

For the molecule `C[C@H]1COCCN1c1nc(-c2cnc(N)nc2)c2c(n1)N([C@H]1CCC(F)(F)C1)CC2` (single isomer, unassigned) [Example 89], the “PI3KA_FL Ki” value in assay [1] was found to be 1.247 nM. Turning to `CC(=O)N1CC[C@@H](N2CCc3c(-c4cnc(N)nc4)nc(N4CCOCC4)nc32)C1` [Example 11], the “PI3KA_FL Ki” value in assay [1] is listed as 4.095 nM. For `CC(=O)N1CC[C@H](N2CCc3c(-c4cnc(N)nc4)nc(N4CCOCC4)nc32)C1` [Example 12], the “PI3KA_FL Ki” value in assay [1] turned out to be 1.130 nM. Take `Nc1ncc(-c2nc(N3CCOCC3)nc3c2CCN3C2CCC2)cn1` [Example 14]: in assay [1], the “PI3KA_FL Ki” value was 6.843 nM.

On to `CS(=O)(=O)[C@H]1C[C@H](N2CCc3c(-c4cnc(N)nc4)nc(N4CCOCC4)nc32)C1` [Example 15], for which, in assay [1], the “PI3KA_FL Ki” value was found to be 0.856 nM.

In the case of `Nc1ncc(-c2nc(N3CCOCC3)nc3c2CCN3[C@H]2CCOC2)cn1` [Example 16], in assay [1], the “PI3KA_FL Ki” value is reported as 1.423 nM. `Nc1ncc(-c2nc(N3CCOCC3)nc3c2CCN3[C@@H]2CCOC2)cn1` [Example 17]: the “PI3KA_FL Ki” value in assay [1] came out at 4.273 nM.

With `Nc1ncc(-c2nc(N3CCOCC3)nc3c2CCN3C2CCOCC2)cn1` [Example 18], in assay [1], the “PI3KA_FL Ki” value was determined as 2.706 nM. Turning to `CC(=O)N(C)[C@H]1C[C@H](N2CCc3c(-c4cnc(N)nc4)nc(N4CCOCC4)nc32)C1` [Example 21], in assay [1], the “PI3KA_FL Ki” value is recorded as 5.393 nM.

For `CN([C@H]1C[C@H](N2CCc3c(-c4cnc(N)nc4)nc(N4CCOCC4)nc32)C1)S(C)(=O)=O` [Example 22], in assay [1], the “PI3KA_FL Ki (nM)” value is “≦0.229 nM”.

Take `CC(=O)N[C@H]1C[C@@H](N2CCc3c(-c4cnc(N)nc4)nc(N4CCOCC4)nc32)C1` [Example 23]: the “PI3KA_FL Ki” value in assay [1] is on record as 9.696 nM.

As for `Nc1ncc(-c2nc(N3CCOCC3)nc3c2CCN3[C@H]2C[C@H](O)C2)cn1` [Example 24], the “PI3KA_FL Ki” value in assay [1] is reported as 0.961 nM. For `Nc1ncc(-c2nc(N3CCOCC3)nc3c2CCN3[C@H]2CCN(C(=O)CO)C2)cn1` [Example 25], the “PI3KA_FL Ki (nM)” value in assay [1] is given as “≦0.229 nM”. `Nc1ncc(-c2nc(N3CCOCC3)nc3c2CCN3[C@H]2CCN(S(N)(=O)=O)C2)cn1` [Example 26]: the “PI3KA_FL Ki” value in assay [1] came to 0.423 nM. Consider `C[C@H]1COCCN1c1nc(-c2cnc(N)nc2)c2c(n1)N([C@@H]1[C@@H]3C[C@H]1N(C(=O)OC(C)(C)C)C3)CC2` [Example 524, tert-butyl (1R,4R,5R)-5-{4-(2-aminopyrimidin-5-yl)-2-[(3S)-3-methylmorpholin-4-yl]-5,6-dihydro-7H-pyrrolo[2,3-d]pyrimidin-7-yl}-2-azabicyclo[2.1.1]hexane-2-carboxylate], for which the Ki in assay [2] worked out at 1.87 nM. The same measure, in the same setting: next, `C[C@H]1COCCN1c1nc(-c2cnc(N)nc2)c2c(n1)N([C@H]1[C@@H]3CN[C@H]1C3)CC2` [Example 525, 5-{7-[(1S,4S,5S)-2-azabicyclo[2.1.1]hex-5-yl]-2-[(3S)-3-methylmorpholin-4-yl]-6,7-dihydro-5H-pyrrolo[2,3-d]pyrimidin-4-yl}pyrimidin-2-amine hydrochloride]: 4.5 nM; `C[C@H]1COCCN1c1nc(-c2cnc(N)nc2)c2c(n1)N([C@@H]1[C@H]3CN[C@@H]1C3)CC2` [Example 526, 5-{7-[(1R,4R,5R)-2-azabicyclo[2.1.1]hex-5-yl]-2-[(3S)-3-methylmorpholin-4-yl]-6,7-dihydro-5H-pyrrolo[2,3-d]pyrimidin-4-yl}pyrimidin-2-amine hydrochloride]: 9.43 nM. Turning to `C[C@H]1COCCN1c1nc(-c2cnc(N)nc2)c2c(n1)N([C@@]13C[C@@H]1CN(C(=O)OC(C)(C)C)C3)CC2` [Example 527, tert-butyl (1S,5R)-1-{4-(2-aminopyrimidin-5-yl)-2-[(3S)-3-methylmorpholin-4-yl]-5,6-dihydro-7H-pyrrolo[2,3-d]pyrimidin-7-yl}-3-azabicyclo[3.1.0]hexane-3-carboxylate], the “PI3KA_Act Ki” value in assay [2] was less than 0.018 nM. In the case of `C[C@H]1COCCN1c1nc(-c2cnc(N)nc2)c2c(n1)N([C@]13C[C@H]1CN(C(=O)OC(C)(C)C)C3)CC2` [Example 528, tert-butyl (1R,5S)-1-{4-(2-aminopyrimidin-5-yl)-2-[(3S)-3-methylmorpholin-4-yl]-5,6-dihydro-7H-pyrrolo[2,3-d]pyrimidin-7-yl}-3-azabicyclo[3.1.0]hexane-3-carboxylate], the “PI3KA_Act Ki” value in assay [2] is 0.092 nM. Regarding `C[C@H]1COCCN1c1nc(-c2cnc(N)nc2)c2c(n1)N([C@@]13CNC[C@@H]1C3)CC2.Cl` [Example 529, 5-{7-[(1R,5S)-3-azabicyclo[3.1.0]hex-1-yl]-2-[(3S)-3-methylmorpholin-4-yl]-6,7-dihydro-5H-pyrrolo[2,3-d]pyrimidin-4-yl}pyrimidin-2-amine hydrochloride], the “PI3KA_Act Ki” value in assay [2] was found to be 0.595 nM. As for `C[C@H]1COCCN1c1nc(-c2cnc(N)nc2)c2c(n1)N([C@]13CNC[C@H]1C3)CC2.Cl` [Example 530, 5-{7-[(1S,5R)-3-azabicyclo[3.1.0]hex-1-yl]-2-[(3S)-3-methylmorpholin-4-yl]-6,7-dihydro-5H-pyrrolo[2,3-d]pyrimidin-4-yl}pyrimidin-2-amine hydrochloride], in assay [2], the “PI3KA_Act Ki” value came to 2.624 nM. Consider “tert-butyl (cis-3-{4-(2-aminopyrimidin-5-yl)-2-[(3S)-3-methylmorpholin-4-yl]-5,6-dihydro-7H-pyrrolo[2,3-d]pyrimidin-7-yl}cyclobutyl)methylcarbamate [Example 448]”, for which the “PI3KA_Act Ki” value in assay [2] is listed as 0.690 nM. Take “tert-butyl (trans-3-{4-(2-aminopyrimidin-5-yl)-2-[(3S)-3-methylmorpholin-4-yl]-5,6-dihydro-7H-pyrrolo[2,3-d]pyrimidin-7-yl}cyclobutyl)methylcarbamate [Example 449]”: the “PI3KA_Act Ki” value in assay [2] is on record as 0.294 nM.
